Measurements: patent publication US20250195534A1 (AXSOME THERAPEUTICS, INC., priority 2022, published 2025)

Test: Phase 3 randomized, double-blind, placebo- and active-controlled trial of meloxicam/rizatriptan in acute treatment of migraine (Example 1, MOMENTUM)
[1] = treatment-emergent adverse event

Structure (SMILES): CN(C)CCc1c[nH]c2ccc(Cn3cncn3)cc12 [Rizatriptan]
- proportion of patients experiencing pain relief ([…] after dosing, single dose): 52.5%
- percentage of patients experiencing sustained pain relief (from 2 hours to 24 hours after dosing): 43.9%
- proportion of patients with sustained pain freedom (from 2 hours to 48 hours): 8.8%
- Any Treatment-Emergent Adverse Event, number of subjects (single dose): 67 subjects
- Dizziness, % of subjects [1]: 2.1%
- Dizziness, number of subjects [1]: 9 subjects
- Nausea, % of subjects [1]: 4.8%
- Nausea, number of subjects [1]: 21 subjects
- Somnolence, % of subjects [1]: 2.1%
- Somnolence, number of subjects [1]: 9 subjects
